Results from ChEMBL document CHEMBL1128124, “Inhibitors of acyl-CoA: Cholesterol O-acyl transferase (ACAT) as hypocholesterolemic agents. 13. Design, synthesis and biological evaluation of tetrazole anilides as potent inhibitors of ACAT in vitro and hypocholesterolemic agents in vivo” (Bioorg Med Chem Lett, 1995).

Key:
Rattus norvegicus [1] = experiment: Percent change in total cholesterol in cholic acid (0.5%)-cholesterol (1.5%)-peanut oil (5.5%)-fed rats after administration of 3 mg/kg for 7 days was determined; assay type: functional
Rattus norvegicus [2] = experiment: Percent change in total cholesterol in cholic acid (0.5%)-cholesterol (1.5%)-peanut oil (5.5%)-fed rats after administration of 3 mg/kg was determined; assay type: functional
Rattus norvegicus [3] = experiment: Percent change in total cholesterol in cholic acid (0.5%)-cholesterol (1.5%)-peanut oil (5.5%)-fed rats after administration of 30 mg/kg was determined; assay type: functional
Rattus norvegicus [4] = experiment: Percent change in total cholesterol in cholic acid (0.5%)-cholesterol (1.5%)-peanut oil (5.5%)-fed rats after administration of 10 mg/kg for 7 days was determined; assay type: functional
[5] = biological target: T1, Sterol O-acyltransferase 1 (Rattus norvegicus, UniProt O70536); experiment: Concentration required for the in vitro inhibition of Acyl coenzyme A:cholesterol acyltransferase (ACAT) in liver microsomes isolated from cholesterol-fed rats was determined; design: species or system Microsome
T1 sequence (O70536 whole entry): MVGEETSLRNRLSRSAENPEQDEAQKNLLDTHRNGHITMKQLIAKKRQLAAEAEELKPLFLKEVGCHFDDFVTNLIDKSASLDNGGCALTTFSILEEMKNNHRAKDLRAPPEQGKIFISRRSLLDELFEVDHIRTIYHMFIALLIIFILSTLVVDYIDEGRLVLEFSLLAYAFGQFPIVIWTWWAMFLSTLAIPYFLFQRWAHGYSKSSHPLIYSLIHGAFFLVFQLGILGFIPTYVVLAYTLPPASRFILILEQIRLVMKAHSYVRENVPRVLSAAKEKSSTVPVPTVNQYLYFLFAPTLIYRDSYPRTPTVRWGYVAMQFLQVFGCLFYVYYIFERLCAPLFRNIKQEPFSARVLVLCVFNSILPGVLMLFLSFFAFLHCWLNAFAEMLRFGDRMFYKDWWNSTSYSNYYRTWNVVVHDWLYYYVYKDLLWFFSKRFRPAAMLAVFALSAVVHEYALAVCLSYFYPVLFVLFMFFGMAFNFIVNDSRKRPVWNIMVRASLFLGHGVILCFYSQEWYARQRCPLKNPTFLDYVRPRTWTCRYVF

Rattus norvegicus [6] = experiment: Percent change in total cholesterol in cholic acid (0.5%)-cholesterol (1.5%)-peanut oil (5.5%)-fed rats after administration of 30 mg/kg for 7 days was determined; assay type: functional
Rattus norvegicus [7] = experiment: Percent change in total cholesterol in cholic acid (0.5%)-cholesterol (1.5%)-peanut oil (5.5%)-fed rats after administration of 30 mg/kg was determined.; assay type: functional
Rattus norvegicus [8] = experiment: Percent change in total cholesterol in cholic acid (0.5%)-cholesterol (1.5%)-peanut oil (5.5%)-fed rats after administration of 3 mg/kg for 7 days was determined.; assay type: functional
Rattus norvegicus [9] = experiment: Percent change in total cholesterol in cholic acid (0.5%)-cholesterol (1.5%)-peanut oil (5.5%)-fed rats after administration of 3 mg/kg was determined.; assay type: functional
Rattus norvegicus [10] = experiment: Percent change in total cholesterol in cholic acid (0.5%)-cholesterol (1.5%)-peanut oil (5.5%)-fed rats after administration of 10 mg/kg for 7 days was determined.; assay type: functional

CCCCCCCCCCC(C)(C)C(=O)Nc1c(OC)cc(OC)cc1OC [CL-976]
Change TC (Rattus norvegicus [1]): -12% | Change TC (Rattus norvegicus [2]): -15% | Change TC (Rattus norvegicus [3]): -57% | Change TC (Rattus norvegicus [4]): -17%

CCCCCCCCCCCCn1nnc(C(C(=O)Nc2c(OC)cc(OC)cc2OC)c2ccccc2)n1 (stereo in doubt; 8-(-))
IC50 [5]: 0.33 µM | Change TC (Rattus norvegicus [1]; 3 mg/kg): 7% | Change TC (Rattus norvegicus [2]; 3 mg/kg): -47% | Change TC (Rattus norvegicus [3]; 30 mg/kg): -64% | Change TC (Rattus norvegicus [4]; 10 mg/kg): -11%

CCCCCCCCCCCCn1nnnc1C(C(=O)Nc1c(C(C)C)cccc1C(C)C)c1ccccc1 (stereo not drawn)
Change TC (Rattus norvegicus [3]): -44% | Change TC (Rattus norvegicus [6]): -24%

CCCCCCCCCCCCn1nnnc1C(C(=O)Nc1c(OC)cc(OC)cc1OC)c1ccccc1 (stereo not drawn)
Change TC (Rattus norvegicus [7]): -38%

CCCCCCCCCCCCn1nnc(C(C(=O)Nc2c(OC)cc(OC)cc2OC)c2ccccc2)n1 (single isomer, unassigned; (+))
Change TC (Rattus norvegicus [1]; 3 mg/kg): -55% | Change TC (Rattus norvegicus [2]; 3 mg/kg): -66% | Change TC (Rattus norvegicus [3]; 30 mg/kg): -68% | Change TC (Rattus norvegicus [4]; 10 mg/kg): -60%

CCCCCCCCCCCCn1nnc(C(C(=O)Nc2c(OC)cc(OC)cc2OC)c2ccccc2)n1 (stereo not drawn)
Change TC (Rattus norvegicus [8]): -23% | Change TC (Rattus norvegicus [9]): -65% | Change TC (Rattus norvegicus [10]): -59% | Change TC (Rattus norvegicus [7]): -63%

CCCCCCCCCCCCn1nnc(C(C(=O)Nc2c(C(C)C)cccc2C(C)C)c2ccccc2)n1 (stereo not drawn)
Change TC (Rattus norvegicus [2]): -46% | Change TC (Rattus norvegicus [3]): -49% | Change TC (Rattus norvegicus [6]): -38%
